Source: patent US10414721B1, “Inhibitor of endocannabinoid cellular reuptake” (University of Bern, priority 2018, dated 2019)
“Also recorded” adds a separate entry of the source.

Assays:
[1] = tested on: main EC degrading enzymes (FAAH, MAGL); test: Stability towards endocannabinoid degrading enzymes; type: in vitro ADME
Procedure: (§1) FAAH, ABHDs, MAGL and COX-2 activity assays were performed using cell homogenates, human recombinant enzymes and mouse, rat and pig brain homogenates as previously described.

FAAH = FAAH (Homo sapiens, UniProt O00519); test: FAAH activity / AEA hydrolysis assay; type: biochemical; conditions: human recombinant enzyme, cell and brain homogenates; read-out: IC50 for AEA hydrolysis (FAAH) inhibition
Chain of FAAH (O00519 whole entry): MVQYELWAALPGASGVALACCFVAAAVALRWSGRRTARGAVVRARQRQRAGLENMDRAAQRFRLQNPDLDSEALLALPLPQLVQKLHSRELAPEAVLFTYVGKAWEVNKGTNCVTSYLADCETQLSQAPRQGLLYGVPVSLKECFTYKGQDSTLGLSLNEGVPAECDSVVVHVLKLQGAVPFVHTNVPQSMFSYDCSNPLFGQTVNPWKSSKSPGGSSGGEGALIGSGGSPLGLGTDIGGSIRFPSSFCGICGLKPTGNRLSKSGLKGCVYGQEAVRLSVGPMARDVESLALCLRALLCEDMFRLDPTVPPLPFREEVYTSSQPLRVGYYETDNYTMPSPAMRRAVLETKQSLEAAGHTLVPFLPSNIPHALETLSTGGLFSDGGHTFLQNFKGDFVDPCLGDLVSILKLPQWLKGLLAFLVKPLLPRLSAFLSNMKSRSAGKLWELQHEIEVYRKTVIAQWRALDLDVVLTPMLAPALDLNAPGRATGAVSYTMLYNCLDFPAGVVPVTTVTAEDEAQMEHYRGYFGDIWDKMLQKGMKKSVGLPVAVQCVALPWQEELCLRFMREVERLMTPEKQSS
Procedure: as §1

[2] = tested on: AEA uptake in Neuro2a mouse neuroblastoma cells; test: AEA uptake inhibition in Neuro2a cells; type: cell-based
Procedure: (§2) All radioactivity-based AEA and 2-AG uptake and release assays performed in U937, and HMC-1 cells were carried out using two different assay formats as previously reported. AEA and 2-AG uptake assay in Neuro2a and primary mouse cortical neurons were performed with a different method disclosed in Chicca 2017.

MAGL = biological target: T1, MAGL (Mus musculus, UniProt O35678); test: MAGL activity (ABPP and radioactivity-based hydrolytic assays); type: biochemical; conditions: ABPP in mouse brain homogenate and hydrolytic assays
T1 construct: membrane preparations obtained from mouse brains; from tissue; host or cells: mouse brain membranes
T1 sequence (O35678 whole entry): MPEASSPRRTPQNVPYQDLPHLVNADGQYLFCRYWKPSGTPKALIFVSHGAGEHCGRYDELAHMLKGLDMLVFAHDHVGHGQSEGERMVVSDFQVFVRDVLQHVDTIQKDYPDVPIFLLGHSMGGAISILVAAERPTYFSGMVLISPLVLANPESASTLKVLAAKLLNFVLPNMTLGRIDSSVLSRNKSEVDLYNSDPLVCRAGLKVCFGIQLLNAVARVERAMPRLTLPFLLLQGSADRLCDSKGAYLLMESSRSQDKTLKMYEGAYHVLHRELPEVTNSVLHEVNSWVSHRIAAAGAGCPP
Procedure: (§3) ABPP experiments were performed using membrane preparations obtained from mouse brains as described earlier.
as §1

CB1 receptors = test: Functional CB1 receptors in brain after repeated treatment; type: in vivo, mouse; conditions: 7 days of daily treatment
Procedure: (§4) CB1 and CB2 receptor binding assays [^35S]GTPγS assays were performed as previously described. WOBE437 was profiled in more detail in an extended CNS adverse drug reaction screening panel (CEREP).

major serine hydrolases = test: Serine hydrolase activity in vivo; conditions: mouse
45 CNS-related receptors = test: CNS adverse drug reaction screening panel (CEREP); type: binding; conditions: including cannabinoid receptors
Procedure: as §4

BALB/c mice = test: LPS-induced endotoxemia; type: in vivo, mouse; conditions: 5 and 10 mg/kg
Procedure: WOBE437 was initially assessed in a battery of four individual tests typically associated with CB1 receptor activation in mice (nociception, locomotion, body temperature and cataleptic behavior), collectively referred to as the “tetrad”. Dose-response experiments identified 10 mg/kg as the lowest dose to elicit a moderate but complete tetrad in BALB/c mice upon intraperitoneal (i.p.) administration (FIGS. 3A-D). […] To assess whether the WOBE437-induced effects were CB1 receptor-mediated, mice were pre-treated with the selective antagonist/inverse agonist rimonabant (SR1). […] These experiments provided a proof-of-concept for the mechanism of action of WOBE437 as a novel “indirect CB1 receptor agonist”. In subsequent studies, the effects of WOBE437 in pain, inflammatory and anxiety models were investigated. […] Both effects were reversed by SR1.
WOBE437 and RX-055 were tested in independent laboratories, in different mouse strains and in multiple (behavioral) models for cannabimimetic, analgesic, anti-inflammatory and anxiolytic-effects in wild-type and phenotypical CB1-KO mice as described in Chicca 2017.

[3] = biological target: fatty acid binding protein 5 (FABP5) (Homo sapiens, UniProt Q01469); test: FABP5 binding
Chain of fatty acid binding protein 5 (FABP5) (Q01469 whole entry, species assumed): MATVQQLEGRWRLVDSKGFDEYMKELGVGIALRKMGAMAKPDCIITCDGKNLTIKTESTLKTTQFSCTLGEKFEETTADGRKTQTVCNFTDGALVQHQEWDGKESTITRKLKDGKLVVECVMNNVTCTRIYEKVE

CB1 receptor = CB1 receptor (Homo sapiens, UniProt P21554); test: CB1 receptor binding assay
Chain of CB1 receptor (P21554 whole entry): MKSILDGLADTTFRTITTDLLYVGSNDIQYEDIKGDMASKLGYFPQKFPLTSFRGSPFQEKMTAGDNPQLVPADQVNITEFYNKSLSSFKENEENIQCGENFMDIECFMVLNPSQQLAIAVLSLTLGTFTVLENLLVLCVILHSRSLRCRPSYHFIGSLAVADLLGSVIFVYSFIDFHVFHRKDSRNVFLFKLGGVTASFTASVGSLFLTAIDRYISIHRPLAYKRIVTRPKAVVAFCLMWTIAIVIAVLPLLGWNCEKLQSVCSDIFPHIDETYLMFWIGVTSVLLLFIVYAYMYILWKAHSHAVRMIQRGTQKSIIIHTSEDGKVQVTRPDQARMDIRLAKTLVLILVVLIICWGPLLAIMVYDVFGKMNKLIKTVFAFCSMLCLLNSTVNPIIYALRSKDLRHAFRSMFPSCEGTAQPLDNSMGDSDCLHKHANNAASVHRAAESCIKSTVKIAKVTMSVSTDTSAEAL
Procedure: as §4

[4] = tested on: 2-AG uptake in Neuro2a cells; test: 2-AG uptake and hydrolysis in Neuro2a cells; type: cell-based, mouse
Procedure: as §2

[5] = tested on: 2-AG uptake in U937 cells; test: 2-AG uptake inhibition in U937 cells; type: cell-based
Procedure: as §2

ABHD6 = biological target: T2, ABHD6 (Mus musculus, UniProt Q8R2Y0); test: ABHD6 activity (ABPP and radioactivity-based hydrolytic assays); type: biochemical; conditions: ABPP in mouse brain homogenate and hydrolytic assays
T2 construct: membrane preparations obtained from mouse brains; from tissue; host or cells: mouse brain membranes
T2 sequence (Q8R2Y0 whole entry): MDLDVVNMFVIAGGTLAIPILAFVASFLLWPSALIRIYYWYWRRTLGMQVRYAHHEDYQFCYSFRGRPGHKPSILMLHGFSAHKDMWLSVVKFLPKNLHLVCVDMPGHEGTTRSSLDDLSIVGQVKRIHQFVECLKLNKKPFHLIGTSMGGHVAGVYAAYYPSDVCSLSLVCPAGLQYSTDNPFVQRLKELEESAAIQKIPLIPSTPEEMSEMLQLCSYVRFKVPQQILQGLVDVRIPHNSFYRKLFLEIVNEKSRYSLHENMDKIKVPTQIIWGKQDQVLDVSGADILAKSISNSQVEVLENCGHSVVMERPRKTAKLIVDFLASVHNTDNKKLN
Procedure: as §3, §1

[6] = tested on: AEA uptake in HMC-1 human mast cells; test: AEA uptake inhibition in FAAH-deficient HMC-1 cells; type: cell-based
Procedure: as §2

[7] = Microsomal clearance, mouse liver microsomes; type: in vitro ADME
Procedure: Human or mice microsome clearance experiment were carried out as according to a previously describe protocol. Briefly, microsome preparation (0.5 mg/mL) plus cofactor NADPH solution was incubated with 1 μM of WOBE437 in 96-well plates at 37° C. After 1, 3, 6, 9, 15, 25, 35 and 45 min, 40 μL of the preparation was transferred and quenched with 3:1 (v/v) acetonitrile containing internal standards. Samples were then cooled and centrifuged before analysis by LC-MS/MS. Log peak area ratios (test compound peak area/internal standard peak area) are plotted against incubation time using a linear fit. The calculated slope is used to determine the intrinsic clearance. Data are obtained from single experiments measured with multiple time-points.

For `CCCCCCC/C=C/C=C/C(=O)NCCc1ccc(OC)c(OC)c1` [WOBE437, (2E,4E)-N-[2-(3,4-Dimethoxyphenyl)ethyl]dodeca-2,4-dienamide], which “stability in the presence of the main EC degrading enzymes” value [1] is on record?
Its value is “completely stable; also recorded: not affected by the hydrolytic activity of FAAH and MAGL”.

And the IC50 (FAAH)?
Its IC50 is at least 10000 nM.

And the “Hill slope, AEA uptake” value ([2]; Neuro2a cells)?
The value was −0.705.

What about the inhibition at 1 µM ([2]; mouse/rat NG108-15, N2a, 2-10 min of incubation) of the same compound?
Its inhibition at 1 µM is 35%.

What about the inhibition at 1 µM ([2]; mouse/rat NG108-15, N2a, 15-20 min of incubation) of the same compound?
Its inhibition at 1 µM is 20%.

What about the IC50 ([2]; mouse/rat NG108-15, N2a, Neuro2a cells) of the same compound?
The IC50 was 55 ± 18 nM.

What about the “inhibition of MAGL” value (MAGL) of the same compound?
The value was “did not inhibit”.

And the “number of functional CB1 receptors in the brain” value (CB1 receptors)?
Its value is “did not affect”.

What about the “inhibition of major serine hydrolases in vivo” value (major serine hydrolases) of the same compound?
Its value is “did not inhibit”.

And the “interaction with 45 CNS-related receptors” value (45 CNS-related receptors)?
Its value is “did not exhibit any significant interaction”.

And the “effect in LPS-induced endotoxemia” value (BALB/c mice)?
The value was “protective effects”.

What about the “binding to FABP5” value [3] of the same compound?
Its value is “no binding”.

What about the Ki (CB1 receptor) of the same compound?
The Ki was 17000 nM.

What about the “reduction of overall 2-AG uptake” value ([4]; 5 μM, 2 and 5 min incubation) of the same compound?
Its value is 40%.

And the “effect on 2-AG uptake and hydrolysis” value ([4]; Neuro2a cells, time course)?
The value was “only inhibited 2-AG uptake but not hydrolysis”.

And the “Hill slope, 2-AG uptake” value [5]?
Its value is −0.973.

What about the IC50 ([5]; Homo sapiens, U-937, 1 μM total 2-AG) of the same compound?
The IC50 was 283 ± 121 nM.

What about the “inhibition of ABHD6” value (ABHD6) of the same compound?
The value was “did not inhibit”.

What about the IC50 ([6]; HMC1, FAAH-deficient HMC-1 human mast cells, estimated) of the same compound?
Its IC50 is about 137 nM.

What about the “Hill slope, AEA uptake” value ([6]; HMC-1 cells) of the same compound?
Its value is −0.934.

What about the melting point of the same compound?
The melting point was 112 °C.

What about the clearance ([7]; 1 μM, preliminary) of the same compound?
The clearance was 0.174 mL/min/kg.

What about the bioavailability at 1 μM ([7]; mouse, mice, from microsomal clearance, read-out: estimated maximal bioavailability) of the same compound?
The bioavailability at 1 μM was 17%.
